Laboratory results from patent publication US8362259B2, “Process for the preparation of esomeprazole magnesium in a stable form” (Lek Pharmaceuticals, D.D., priority 2008, dated 2013).

What was measured:
Type in all cases: physicochemical
[1] = stress stability testing, HPLC related substances and degradation products; parameters: HPLC related substance RRt 0.10 / HPLC related substance RRt 0.11 / HPLC related substance RRt 0.16 / HPLC related substance RRt 0.20 / HPLC related substance RRt 1.45 / HPLC related substance RRt 1.59 / HPLC related substance RRt 1.61 / HPLC related substance RRt 2.20 / HPLC related substance RRt 2.25: unit not given here
Method: Illustratively, it was tested under regular pharmaceutical tests such as stress condition test (Table 1) and was compared with chemical stability of the starting amorphous esomeprazole magnesium or esomeprazole Mg dihydrate form B (Table 2).

[2] = removal of residual solvents by drying (Comparative Example 2); details: drying at high temperatures
Text: Further removing of residual solvents was studied on amorphous esomeprazole magnesium by drying.

[3] = physical (polymorphic) stability under stress conditions; details: 14 days 40° C./75% relative humidity, 7 days 60° C.
Method: In addition, also physical stability of esomeprazole magnesium dihydrate form A obtained according to the present invention was tested.

[4] = 40° C./75 RH, open dish, 14 days, open vial

## magnesium bis(5-methoxy-2-[(S)-[(4-methoxy-3,5-dimethyl-2-pyridinyl)methyl]sulfinyl]-1H-benzimidazole) [Esomeprazole magnesium dihydrate form B]
[1]; [4]
  HPLC - Related substances and degradation products: Sum: 0.14
  HPLC related substance RRt 1.59: 0.06
  HPLC related substance RRt 1.61: 0.06
[1]; 60° C., 7 days, vial
  HPLC - Related substances and degradation products: Sum: 0.07
  HPLC related substance Omeprazole-N-methyl: 0.07
[1]; Initial analysis
  HPLC - Related substances and degradation products: Sum: <0.05

## magnesium bis(5-methoxy-2-[(S)-[(4-methoxy-3,5-dimethyl-2-pyridinyl)methyl]sulfinyl]-1H-benzimidazole) [Amorphous esomeprazole magnesium]
[2]
  chemical stability on drying to remove residual solvents: accompanied by chemical decomposition
[1]; [4]
  HPLC - Related substances and degradation products: Sum: 0.43
  HPLC related substance OMP-benzimidazole (Ph. Eur. Imp. A): 0.04
  HPLC related substance RRt 0.10: 0.04
  HPLC related substance RRt 0.11: 0.09
  HPLC related substance RRt 0.16: 0.07
  HPLC related substance RRt 0.20: 0.04
  HPLC related substance RRt 1.45: 0.06
  HPLC related substance RRt 2.20: 0.09
[1]; 60° C., 7 days, vial
  HPLC - Related substances and degradation products: Sum: 0.79
  HPLC related substance OMP-N-oxide (Ph. Eur. Imp. E): 0.03
  HPLC related substance OMP-N-sufone (Ph. Eur. Imp. D): 0.03
  HPLC related substance OMP-benzimidazole (Ph. Eur. Imp. A): 0.06
  HPLC related substance RRt 0.11: 0.12
  HPLC related substance RRt 0.16: 0.18
  HPLC related substance RRt 0.20: 0.06
  HPLC related substance RRt 1.45: 0.15
  HPLC related substance RRt 2.20: 0.07
  HPLC related substance RRt 2.25: 0.09
[1]; Initial analysis
  HPLC - Related substances and degradation products: Sum: 0.10
  HPLC related substance RRt 0.16: 0.06
  HPLC related substance RRt 1.45: 0.04

## COc1ccc2[n-]c([S@@+]([O-])Cc3ncc(C)c(OC)c3C)nc2c1.COc1ccc2[n-]c([S@@+]([O-])Cc3ncc(C)c(OC)c3C)nc2c1.O.O.[Mg+2]
[1]; stress stability testing, all three forms compared
  chemical stability compared among the three forms of esomeprazole magnesium: chemically the most stable form

## magnesium bis(5-methoxy-2-[(S)-[(4-methoxy-3,5-dimethyl-2-pyridinyl)methyl]sulfinyl]-1H-benzimidazole) [Esomeprazole magnesium dihydrate form A]
[3]
  physical stability of the polymorphic form: stable
[1]; [4]
  Chromatographic purity: 99.85
  HPLC - Related substances and degradation products: Sum: ≦0.05
[1]; 60° C., 7 days, vial
  Chromatographic purity: 99.82
  HPLC - Related substances and degradation products: Sum: ≦0.05
[1]; Initial analysis
  Chromatographic purity: 99.85
